Experimental findings from patent US10253002B2, “Compounds and methods of treating infections” (Neoculi Pty Ltd., priority 2013, dated 2019) are described below.

The subject of one assay is Pseudomonas aeruginosa. As to the kind of experiment: Broth microdilution MIC, Example 7 (NCL812 and analogues). In kind it is cell-based. Particulars: P. aeruginosa, 24 hours.
The next assay relates to VRE. The assay is described as above. The class given is cell-based, Enterococcus spp. In outline:
(§1)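 Values are MICs in μg/ml from broth microdilution per CLSI, with growth scored against a drug-free well.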

For a further assay, the system named is Escherichia coli. The assay is described as above. The class given is cell-based. As to conditions: E. coli, 24 hours.
The next assay has as its system MRSA. Described as above. In kind it is cell-based, Staphylococcus aureus. In outline:
as §1

Assay [1] deals with Staphylococcus pseudintermedius isolates (MSSP and MRSP). Kind of assay: Disk diffusion and Epsilometer susceptibility testing, Example 6. The class given is cell-based. As to conditions: 13 MRSP isolates. (Agar diffusion results depend on both activity and mobility in agar.)
The mark [2] stands for this setting: VRE 1, 24 hours, duplicate lines per compound.
Setting [3] is: VRE 2, 24 hours, duplicate lines per compound.
Setting [4] is: MRSA 1, 24 hours, duplicate lines per compound.
[5] abbreviates: MRSA 2, 24 hours, duplicate lines per compound.

Values after ≈ are worked out from the molar mass of the structure shown. Where only a bound is given, the exact number is not on record here.

`N=C(NN=Cc1ccc(Cl)cc1N)NN=Cc1ccc(Cl)cc1N` [NCL 169]: the “MIC (μg/ml) at 24 hours, P. aeruginosa” value in the assay on Pseudomonas aeruginosa (duplicate lines per compound) was greater than 128 µg/mL. In addition, in the assay on VRE (setting [2]), the “MIC (μg/ml) at 24 hours, VRE 1” value was 32 µg/mL (≈ 87.9 µM). Also, the “MIC (μg/ml) at 24 hours, VRE 2” value in the assay on VRE (setting [3]) came out at 32 µg/mL (≈ 87.9 µM). Further, the “MIC (μg/ml) at 24 hours, E. coli” value against Escherichia coli (duplicate lines per compound) was greater than 128 µg/mL. Also, the “MIC (μg/ml) at 24 hours, MRSA 1” value in the assay on MRSA (setting [4]) came out at 32 µg/mL (≈ 87.9 µM). In addition, in the assay on MRSA (setting [5]), the “MIC (μg/ml) at 24 hours, MRSA 2” value is 64 µg/mL (≈ 176 µM).

For `CC(=O)Nc1cc(Cl)ccc1C=NNC(=N)NN=Cc1ccc(Cl)cc1NC(C)=O` [NCL 170], the “MIC (μg/ml) at 24 hours, P. aeruginosa” value with Pseudomonas aeruginosa (duplicate lines per compound) is greater than 128 µg/mL. In addition, in the assay with VRE (setting [2]), the “MIC (μg/ml) at 24 hours, VRE 1” value was greater than 128 µg/mL. In addition, the “MIC (μg/ml) at 24 hours, VRE 2” value in the assay with VRE (setting [3]) is greater than 128 µg/mL. Besides, the “MIC (μg/ml) at 24 hours, E. coli” value in the assay on Escherichia coli (duplicate lines per compound) was greater than 128 µg/mL. The “MIC (μg/ml) at 24 hours, MRSA 1” value in the assay with MRSA (setting [4]) was greater than 128 µg/mL. Also, in the assay on MRSA (setting [5]), the “MIC (μg/ml) at 24 hours, MRSA 2” value is greater than 128 µg/mL.

Take `CC(=NNC(=N)NN=C(C)c1ccccn1)c1ccccn1.Cl` [NCL 172]: the “MIC (μg/ml) at 24 hours, P. aeruginosa” value in the assay on Pseudomonas aeruginosa is greater than 128 µg/mL. In addition, the “MIC (μg/ml) at 24 hours, VRE 1” value with VRE (VRE 1, 24 hours) was greater than 128 µg/mL. For the same compound, the “MIC (μg/ml) at 24 hours, VRE 2” value against VRE (VRE 2, 24 hours) is greater than 128 µg/mL. In addition, the “MIC (μg/ml) at 24 hours, E. coli” value in the assay with Escherichia coli was greater than 128 µg/mL. Further, in the assay with MRSA (MRSA 1, 24 hours), the “MIC (μg/ml) at 24 hours, MRSA 1” value came to 128 µg/mL. The “MIC (μg/ml) at 24 hours, MRSA 2” value in the assay with MRSA (MRSA 2, 24 hours) stood at 64 µg/mL.

For `CC(=NNC(=N)NN=C(C)c1ccc(Cl)cc1O)c1ccc(Cl)cc1O.Cl` [NCL 173], in the assay with Pseudomonas aeruginosa, the “MIC (μg/ml) at 24 hours, P. aeruginosa” value was greater than 128 µg/mL. The “MIC (μg/ml) at 24 hours, VRE 1” value against VRE (VRE 1, 24 hours) is 4 µg/mL. Further, in the assay on VRE (VRE 2, 24 hours), the “MIC (μg/ml) at 24 hours, VRE 2” value is 32 µg/mL. For the same compound, the “MIC (μg/ml) at 24 hours, E. coli” value with Escherichia coli is greater than 128 µg/mL. The “MIC (μg/ml) at 24 hours, MRSA 1” value in the assay with MRSA (MRSA 1, 24 hours) was 16 µg/mL. For the same compound, in the assay on MRSA (MRSA 2, 24 hours), the “MIC (μg/ml) at 24 hours, MRSA 2” value was determined as 16 µg/mL.

As to `Cl.N=C(NN=Cc1ccc(Cl)cc1O)NN=Cc1ccc(Cl)cc1O` [NCL 174], the “MIC (μg/ml) at 24 hours, P. aeruginosa” value in the assay with Pseudomonas aeruginosa is greater than 128 µg/mL. The “MIC (μg/ml) at 24 hours, VRE 1” value in the assay on VRE (VRE 1, 24 hours) worked out at 4 µg/mL. In addition, in the assay with VRE (VRE 2, 24 hours), the “MIC (μg/ml) at 24 hours, VRE 2” value was 32 µg/mL. Further, the “MIC (μg/ml) at 24 hours, E. coli” value in the assay on Escherichia coli was greater than 128 µg/mL. In addition, in the assay on MRSA (MRSA 1, 24 hours), the “MIC (μg/ml) at 24 hours, MRSA 1” value stood at 32 µg/mL. In the assay on MRSA (MRSA 2, 24 hours), the “MIC (μg/ml) at 24 hours, MRSA 2” value turned out to be 32 µg/mL.

Consider `Cl.N=C(N/N=C/c1ccc(Cl)nc1)N/N=C/c1ccc(Cl)nc1` [NCL 175], for which the “MIC (μg/ml) at 24 hours, P. aeruginosa” value against Pseudomonas aeruginosa is greater than 128 µg/mL. Further, the “MIC (μg/ml) at 24 hours, VRE 1” value against VRE (VRE 1, 24 hours) came to 32 µg/mL. The “MIC (μg/ml) at 24 hours, VRE 2” value against VRE (VRE 2, 24 hours) is greater than 128 µg/mL. In addition, in the assay with Escherichia coli, the “MIC (μg/ml) at 24 hours, E. coli” value was greater than 128 µg/mL. Further, the “MIC (μg/ml) at 24 hours, MRSA 1” value against MRSA (MRSA 1, 24 hours) came to 64 µg/mL. Moreover, the “MIC (μg/ml) at 24 hours, MRSA 2” value against MRSA (MRSA 2, 24 hours) was greater than 128 µg/mL.

As for `Cl.N=C(NN=Cc1cccnc1N)NN=Cc1cccnc1N` [NCL 176], the “MIC (μg/ml) at 24 hours, P. aeruginosa” value with Pseudomonas aeruginosa was greater than 128 µg/mL. Further, the “MIC (μg/ml) at 24 hours, VRE 1” value with VRE (VRE 1, 24 hours) was greater than 128 µg/mL. For the same compound, the “MIC (μg/ml) at 24 hours, VRE 2” value against VRE (VRE 2, 24 hours) is greater than 128 µg/mL. In addition, the “MIC (μg/ml) at 24 hours, E. coli” value against Escherichia coli was greater than 128 µg/mL. Moreover, in the assay with MRSA (MRSA 1, 24 hours), the “MIC (μg/ml) at 24 hours, MRSA 1” value was greater than 128 µg/mL. In addition, in the assay on MRSA (MRSA 2, 24 hours), the “MIC (μg/ml) at 24 hours, MRSA 2” value is greater than 128 µg/mL.

Take `Cl.N=C(NN=C(CO)c1ccc(Cl)cc1)NN=C(CO)c1ccc(Cl)cc1` [NCL 177]: the “MIC (μg/ml) at 24 hours, P. aeruginosa” value in the assay on Pseudomonas aeruginosa is greater than 128 µg/mL. The “MIC (μg/ml) at 24 hours, VRE 1” value with VRE (VRE 1, 24 hours) was 4 µg/mL. For the same compound, the “MIC (μg/ml) at 24 hours, VRE 2” value in the assay on VRE (VRE 2, 24 hours) stood at 8 µg/mL. Besides, the “MIC (μg/ml) at 24 hours, E. coli” value in the assay on Escherichia coli was greater than 128 µg/mL. The “MIC (μg/ml) at 24 hours, MRSA 1” value in the assay on MRSA (MRSA 1, 24 hours) stood at 8 µg/mL. In addition, the “MIC (μg/ml) at 24 hours, MRSA 2” value in the assay with MRSA (MRSA 2, 24 hours) turned out to be 8 µg/mL.

In assay [1], `CC1(C)S[C@@H]2[C@H](NC(=O)[C@H](N)c3ccc(O)cc3)C(=O)N2[C@H]1C(=O)O` [amoxicillin] gave an MRSP isolates susceptible of 23%.
